MIC data for 26 compounds are collected here from ChEMBL document CHEMBL3992516, “Synthesis and SAR evaluation of novel thioridazine derivatives active against drug-resistant tuberculosis” (Eur J Med Chem, 2017).

As usually defined, the MIC is the lowest concentration that inhibits growth of the organism. High values mean weaker potency, low ones greater potency.

≈ marks a conversion by molar mass, not a printed value.

The subject of the test is Mycobacterium tuberculosis variant bovis. In words: Antimycobacterial activity against Mycobacterium bovis BCG Pasteur ATCC 35734 by microplate alamar blue assay. Type of test: functional. (In general: Alamar Blue is a resazurin reagent that responds to reducing activity.)
Consider `CSc1ccc2c(c1)N(CCC1CCCCN1C(C)C)c1ccccc1S2` (stereo unspecified), for which the MIC is greater than 64 µg/mL.
`c1ccc2c(c1)Sc1ccccc1N2CCC1CCCCN1` (stereo unspecified) yielded an MIC greater than 64 µg/mL.
With `Clc1ccc2c(c1)N(CCCN1CCSCC1)c1ccccc1S2`, the MIC was greater than 64 µg/mL.
To `CN1CCCCC1CCN1c2ccccc2Sc2ccccc21` (stereo unspecified) belongs 64 µg/mL (≈ 197 µM); to `CCCN1CCCCC1CCN1c2ccccc2Sc2ccc(SC)cc21` (stereo unspecified), 64 µg/mL (≈ 161 µM).
In turn, `CSc1ccc2c(c1)N(CCC1CCCCN1)c1ccccc1S2` (stereo unspecified) yielded an MIC of 8 µg/mL (≈ 22.4 µM).
To `c1ccc2c(c1)ncn2CCC1CCCCN1` (stereo unspecified) belongs greater than 64 µg/mL; to `CSc1ccc2c(c1)N(C(=O)CN1CCN(C)CC1)c1ccccc1S2`, greater than 64 µg/mL.
To `CN1CCN(CCCN2c3ccccc3Sc3ccccc32)CC1` [PERAZINE] belongs 64 µg/mL (≈ 189 µM); to `CSc1ccc2c(c1)N(CCCN1CCSCC1)c1ccccc1S2`, greater than 64 µg/mL; to `CN1CCCCC1CCN1c2ccccc2Sc2ccc(Cl)cc21` (stereo unspecified), 8 µg/mL (≈ 22.3 µM).
To `CN1CCCCC1CCn1c2ccccc2c2ccccc21` (stereo unspecified) belongs greater than 64 µg/mL.
The compound `c1ccc2c(c1)ccn2CCC1CCCCN1` (stereo unspecified) yielded an MIC of 64 µg/mL (≈ 280 µM).
In turn, `CSc1ccc2c(c1)N(CCCN1CCN(C34CC5CC(CC(C5)C3)C4)CC1)c1ccccc1S2` showed a minimum inhibitory concentration (MIC) of 64 µg/mL (≈ 127 µM).
To `CN1CCCCC1CCn1cnc2ccccc21` (stereo unspecified) belongs greater than 64 µg/mL; to `c1ccc(N2CCN(CCCN3c4ccccc4Sc4ccccc43)CC2)cc1`, greater than 64 µg/mL.
The compound `c1ccc2c(c1)c1ccccc1n2CCC1CCCCN1` (stereo unspecified) came in with a minimum inhibitory concentration (MIC) greater than 64 µg/mL.
To `CSc1ccc2c(c1)N(CCCN1CCN(c3ccccc3)CC1)c1ccccc1S2` belongs greater than 64 µg/mL; to `CSc1ccc2c(c1)N(CCC1CCCCN1Cc1ccccc1)c1ccccc1S2` (stereo unspecified), 8 µg/mL (≈ 17.9 µM); to `CSc1ccc2c(c1)N(CCC1CCCCN1C)c1ccccc1S2` (stereo unspecified) [THIORIDAZINE], 16 µg/mL (≈ 43.2 µM).
To `CSc1ccc2c(c1)N(CCCN1CCN(C3C4CC5CC(C4)CC3C5)CC1)c1ccccc1S2` (stereo unspecified) belongs greater than 64 µg/mL; to `Clc1ccc2c(c1)N(CCC1CCCCN1)c1ccccc1S2` (stereo unspecified), 5.3 µg/mL (≈ 15.4 µM); to `CSc1ccc2c(c1)N(CCCN1CCN(C)CC1)c1ccccc1S2`, 8 µg/mL (≈ 20.7 µM).
To `NNC(=O)c1ccncc1` [ISONIAZID] belongs 0.063 µg/mL (≈ 0.459 µM).
With `CN1CCN(CCCn2ccc3ccccc32)CC1`, the MIC was greater than 64 µg/mL.
Consider `Clc1ccc2c(c1)N(CCCN1CCN(c3ccccc3)CC1)c1ccccc1S2`, for which the MIC is greater than 64 µg/mL.
